Test results from ChEMBL document CHEMBL5726172, “Spiro-cyclic amine derivatives as S1P modulators” (2019).
pEC50: −log10 of the molar value.

Target: Sphingosine 1-phosphate receptor 5 (Homo sapiens, UniProt Q9H228)
Experiment: In Vitro Functional Activity (Agonism) on Human S1P5 Receptors: The CHO-human-S1P5-Aeqorin assay was bought from Euroscreen, Brussels (Euroscreen, Technical dossier, Human Lysophospholid S1P5 (Edg8) receptor, DNA clone and CHO AequoScreen™ recombinant cell-line, catalog no: ES-593-A, September 2006). Human-S1P5-Aequorin cells express mitochondrial targeted apo-Aequorin. Cells have to be loaded with coelanterazine, in order to reconstitute active Aequorin. After binding of agonists to the human S1P5 receptor the intracellular calcium concentration increases and binding of calcium to the apo-Aequorin/coelenterazine complex leads to an oxidation reaction of coelenterazine, which results in the production of apo-Aequorin, coelenteramide, CO2 and light ([…]max 469 nm). This luminescent response is dependent on the agonist concentration. Luminescence is measured using the MicroBeta Jet (Perkin Elmer). Agonistic effects of compounds are expressed as pEC50. Compounds were tested at a 10 points half log concentration range, and 3 independent experiments were performed in single point's measurements.
Format: cell-based

Chain of Sphingosine 1-phosphate receptor 5 (Q9H228 whole entry): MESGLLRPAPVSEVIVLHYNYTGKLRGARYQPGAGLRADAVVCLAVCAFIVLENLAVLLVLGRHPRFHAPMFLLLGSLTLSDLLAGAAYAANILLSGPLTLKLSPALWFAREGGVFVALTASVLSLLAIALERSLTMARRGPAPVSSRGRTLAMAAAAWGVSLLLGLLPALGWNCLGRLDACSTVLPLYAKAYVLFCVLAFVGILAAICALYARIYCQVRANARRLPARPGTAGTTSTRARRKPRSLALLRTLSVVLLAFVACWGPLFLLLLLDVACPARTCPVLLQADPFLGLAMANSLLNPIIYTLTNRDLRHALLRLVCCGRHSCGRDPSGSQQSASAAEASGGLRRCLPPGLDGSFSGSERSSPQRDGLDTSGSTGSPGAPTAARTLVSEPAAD

Structure (SMILES) | pEC50
O=C(O)CCN1CCCC2(COc3cc(OCc4c(Cl)cccc4C(F)(F)F)ccc32)C1 (configuration not stated) | 7.30
CC(C)c1cccc(F)c1COc1ccc2c(c1)OCC21CCN(CCC(=O)O)CC1 | 7.30
